Test results: PubChem BioAssay AID493146 (Sanford-Burnham Center for Chemical Genomics, 2011)
Calls of active or inactive are those of the source. The rule behind the calls is not given here.

Target: intestinal alkaline phosphatase (Alpi), Mus musculus
Test: murine Alpi activation by analogs – biochemical, luminescence, SAR follow-up (AID 493146)
Conditions: purified mouse IAP, luminescent substrate

Question: Which EC50 does the source give for `N#Cc1c(SCC(=O)Nc2ccc(C(F)(F)F)cc2)sc2c(O)cc(=O)[nH]c12` here?
Answer: > 100 µM (inactive)

Question: With `COc1ccc(NC(=S)NCCC(c2ccccc2)c2ccccc2)cc1` as the molecule, how does the EC50 read?
Answer: 37.7 µM

Question: Which EC50 does the source give for `CSc1cccc(NC(=O)CCNS(=O)(=O)c2ccc3[nH]c(=O)oc3c2)c1` here?
Answer: > 100 µM (inactive)

Question: `CCCSc1nnc(NC(=O)CSc2sc3c(O)cc(=O)[nH]c3c2C#N)s1` was tested. Which EC50 did it give?
Answer: > 100 µM (inactive)

Question: Which EC50 does the source give for `COC(=O)NNC(=O)c1cc(OC)c(OC)c(OC)c1` here?
Answer: > 100 µM (inactive)

Question: For `Cc1ccc(NC(=O)CCNS(=O)(=O)c2ccc3[nH]c(=O)oc3c2)cc1F`, which EC50 is on record?
Answer: > 100 µM (inactive)

Question: With `C/C(=N\NC(=O)c1cc(O)c(O)c(O)c1)c1ccncc1` as the molecule, how does the EC50 read?
Answer: > 100 µM (inactive)

Question: With `COc1ccc(N2CCN(C(=O)CN3C(=O)/C(=C\c4ccco4)SC3=S)CC2)cc1` as the molecule, how does the EC50 read?
Answer: > 100 µM (inactive)

Question: How did the EC50 turn out when `CCOc1ccc2nc(NC(=O)CN(C)S(=O)(=O)c3ccc4[nH]c(=O)oc4c3)sc2c1` was run?
Answer: > 100 µM (inactive)

Question: How did the EC50 turn out when `CN(C(=O)CN1C(=O)/C(=C\c2ccco2)SC1=S)C1CCS(=O)(=O)C1` (stereo unspecified) was run?
Answer: > 100 µM (inactive)

Question: With `CC(C(=O)Nc1ccccc1C(=O)O)N1C(=O)/C(=C\c2ccco2)SC1=S` (stereo unspecified) as the molecule, how does the EC50 read?
Answer: > 100 µM (inactive)

Question: How did the EC50 turn out when `CC(C(=O)Nc1ccc(C(=O)O)c(O)c1)N1C(=O)/C(=C\c2ccco2)SC1=S` (stereo unspecified) was run?
Answer: > 100 µM (inactive)

Question: For `O=C(N/N=C/c1ccc(F)cc1)c1cc(O)c(O)c(O)c1`, which EC50 is on record?
Answer: > 100 µM (inactive)

Question: With `COc1ccc(OC)c(NC(=O)CCNS(=O)(=O)c2ccc3[nH]c(=O)oc3c2)c1` as the molecule, how does the EC50 read?
Answer: > 100 µM (inactive)

Question: `O=C(N/N=C/C1CC2CCC1C2)c1cc(O)c(O)c(O)c1` (stereo unspecified) was tested. Which EC50 did it give?
Answer: > 100 µM (inactive)

Question: With `COc1ccc(CNC(=O)CSc2sc3c(O)cc(=O)[nH]c3c2C#N)cc1` as the molecule, how does the EC50 read?
Answer: > 100 µM (inactive)

Question: For `CCOc1cccc(NC(=O)CSc2sc3c(O)cc(=O)[nH]c3c2C#N)c1`, which EC50 is on record?
Answer: > 100 µM (inactive)

Question: Which EC50 does the source give for `O=C(CCN1C(=O)/C(=C/c2ccco2)SC1=S)Nc1ccc(C(=O)O)c(O)c1` here?
Answer: > 100 µM (inactive)

Question: With `CCc1ccc(NC(=O)CN(C)S(=O)(=O)c2ccc3[nH]c(=O)oc3c2)cc1` as the molecule, how does the EC50 read?
Answer: > 100 µM (inactive)

Question: How did the EC50 turn out when `COc1cc(C(=O)NN=Cc2ccccn2)cc(OC)c1OC` was run?
Answer: > 100 µM (inactive)

Question: `COc1cc(C(=O)NNC(=O)C2CC2)cc(OC)c1OC` was tested. Which EC50 did it give?
Answer: > 100 µM (inactive)

Question: `O=C(CCNS(=O)(=O)c1ccc2[nH]c(=O)oc2c1)Nc1ccccc1` was tested. Which EC50 did it give?
Answer: > 100 µM (inactive)

Question: How did the EC50 turn out when `N#Cc1cccc(NC(=O)CSc2sc3c(O)cc(=O)[nH]c3c2C#N)c1` was run?
Answer: > 100 µM (inactive)

Question: For `O=C(CCCN1C(=O)/C(=C/c2ccco2)SC1=S)Nc1ccccc1`, which EC50 is on record?
Answer: > 100 µM (inactive)

Question: For `COc1ccccc1CNC(=O)CCNS(=O)(=O)c1ccc2[nH]c(=O)oc2c1`, which EC50 is on record?
Answer: > 100 µM (inactive)

Question: How did the EC50 turn out when `O=C(CN1C(=O)/C(=C/c2ccco2)SC1=S)Nc1ccc(O)c(C(=O)O)c1` was run?
Answer: > 100 µM (inactive)

Question: For `COc1ccc(OC)c(NC(=O)CSc2sc3c(O)cc(=O)[nH]c3c2C#N)c1`, which EC50 is on record?
Answer: > 100 µM (inactive)

Question: With `Cc1ccc(C)c(NC(=O)CCNS(=O)(=O)c2ccc3[nH]c(=O)oc3c2)c1` as the molecule, how does the EC50 read?
Answer: > 100 µM (inactive)

Question: How did the EC50 turn out when `CCN(CC)C(=O)CSc1sc2c(O)cc(=O)[nH]c2c1C#N` was run?
Answer: > 100 µM (inactive)

Question: With `COc1ccc(CNC(=O)CSc2sc3c(O)cc(=O)[nH]c3c2C#N)cc1OC` as the molecule, how does the EC50 read?
Answer: > 100 µM (inactive)

Question: For `N#Cc1c(SCC(=O)Nc2nc3ccc(Br)cc3s2)sc2c(O)cc(=O)[nH]c12`, which EC50 is on record?
Answer: > 100 µM (inactive)

Question: For `O=C(N/N=C/c1ccco1)c1cc(O)c(O)c(O)c1`, which EC50 is on record?
Answer: > 100 µM (inactive)

Question: With `COc1cccc(CNC(=O)CCNS(=O)(=O)c2ccc3[nH]c(=O)oc3c2)c1` as the molecule, how does the EC50 read?
Answer: > 100 µM (inactive)

Question: With `COc1ccccc1NC(=O)CSc1sc2c(O)cc(=O)[nH]c2c1C#N` as the molecule, how does the EC50 read?
Answer: > 100 µM (inactive)

Question: For `CCOc1ccccc1NC(=O)CCNS(=O)(=O)c1ccc2[nH]c(=O)oc2c1`, which EC50 is on record?
Answer: > 100 µM (inactive)

Question: For `N#Cc1c(SCC(=O)Nc2cccc(F)c2)sc2c(O)cc(=O)[nH]c12`, which EC50 is on record?
Answer: > 100 µM (inactive)

Question: How did the EC50 turn out when `O=C(CN1C(=O)/C(=C\c2ccco2)SC1=S)Nc1ccc(C(=O)O)cc1` was run?
Answer: > 100 µM (inactive)

Question: How did the EC50 turn out when `O=C(NNC(=O)c1cc(O)c(O)c(O)c1)NC1CCCCC1` was run?
Answer: > 100 µM (inactive)

Question: For `CC(C)NC(=O)CSc1sc2c(O)cc(=O)[nH]c2c1C#N`, which EC50 is on record?
Answer: > 100 µM (inactive)

Question: Which EC50 does the source give for `NS(=O)(=O)c1ccc(-c2ccc(/C=C3\SC(=S)N(C4CCS(=O)(=O)C4)C3=O)o2)cc1` (stereo unspecified) here?
Answer: > 100 µM (inactive)

Question: `FC(F)(F)c1cccc(NC(=S)NCCC(c2ccccc2)c2ccccc2)c1` was tested. Which EC50 did it give?
Answer: 82.3 µM

Question: Which EC50 does the source give for `O=C(CCCN1C(=O)/C(=C\c2ccco2)SC1=S)Nc1ccc(O)cc1C(=O)O` here?
Answer: > 100 µM (inactive)

Question: Which EC50 does the source give for `O=C(NCCc1ccc(Cl)cc1)C1CCCN(S(=O)(=O)c2ccc3[nH]c(=O)oc3c2)C1` (stereo unspecified) here?
Answer: > 100 µM (inactive)

Question: Which EC50 does the source give for `O=C(CN1C(=O)/C(=C/c2ccco2)SC1=S)Nc1ccc(C(=O)O)cc1` here?
Answer: > 100 µM (inactive)

Question: With `N#Cc1c(SCC(=O)Nc2nncs2)sc2c(O)cc(=O)[nH]c12` as the molecule, how does the EC50 read?
Answer: > 100 µM (inactive)

Question: How did the EC50 turn out when `Cc1csc(NC(=O)CSc2sc3c(O)cc(=O)[nH]c3c2C#N)n1` was run?
Answer: > 100 µM (inactive)

Question: Which EC50 does the source give for `S=C(NCCC(c1ccccc1)c1ccccc1)Nc1ccc(Cl)cc1Cl` here?
Answer: 7.1 µM

Question: Which EC50 does the source give for `CCN(C(=O)CN1C(=O)/C(=C\c2ccco2)SC1=S)C1CCS(=O)(=O)C1` (stereo unspecified) here?
Answer: > 100 µM (inactive)

Question: `CC(C)c1ccc(NC(=O)CCNS(=O)(=O)c2ccc3[nH]c(=O)oc3c2)cc1` was tested. Which EC50 did it give?
Answer: > 100 µM (inactive)

Question: For `O=[N+]([O-])c1ccc(NC(=S)NCCC(c2ccccc2)c2ccccc2)cc1`, which EC50 is on record?
Answer: > 100 µM (inactive)

Question: For `COc1ccc(Cl)cc1NC(=O)CSc1sc2c(O)cc(=O)[nH]c2c1C#N`, which EC50 is on record?
Answer: > 100 µM (inactive)

Question: `CCOC(=O)N1CCC(NC(=O)CSc2sc3c(O)cc(=O)[nH]c3c2C#N)CC1` was tested. Which EC50 did it give?
Answer: > 100 µM (inactive)

Question: `Cc1ccc(NC(=O)CCNS(=O)(=O)c2ccc3[nH]c(=O)oc3c2)c(C)c1` was tested. Which EC50 did it give?
Answer: > 100 µM (inactive)

Question: For `CCOC(=O)NC(=O)CSc1sc2c(O)cc(=O)[nH]c2c1C#N`, which EC50 is on record?
Answer: > 100 µM (inactive)

Question: With `COc1ccc(NC(=O)CSc2sc3c(O)cc(=O)[nH]c3c2C#N)c(OC)c1` as the molecule, how does the EC50 read?
Answer: > 100 µM (inactive)

Question: How did the EC50 turn out when `CC(C)C(C(=O)NC1CCS(=O)(=O)C1)N1C(=O)/C(=C\c2ccco2)SC1=S` (stereo unspecified) was run?
Answer: > 100 µM (inactive)

Question: With `COc1ccc(NC(=O)CCNS(=O)(=O)c2ccc3[nH]c(=O)oc3c2)cc1Cl` as the molecule, how does the EC50 read?
Answer: > 100 µM (inactive)

Question: `Cc1ccc(Cl)cc1NC(=O)CSc1sc2c(O)cc(=O)[nH]c2c1C#N` was tested. Which EC50 did it give?
Answer: > 100 µM (inactive)

Question: Which EC50 does the source give for `O=C(CCN1C(=O)/C(=C\c2ccco2)SC1=S)Nc1ccc(C(=O)O)c(O)c1` here?
Answer: > 100 µM (inactive)

Question: Which EC50 does the source give for `COc1cc(C(=O)NNC(=S)NC(=O)c2ccc(Cl)cc2)cc(OC)c1OC` here?
Answer: > 100 µM (inactive)

Question: With `Cc1ccc(NC(=O)CSc2sc3c(O)cc(=O)[nH]c3c2C#N)c(F)c1` as the molecule, how does the EC50 read?
Answer: > 100 µM (inactive)

Question: How did the EC50 turn out when `O=C(CN1C(=O)/C(=C/c2ccco2)SC1=S)Nc1ccc(C(=O)O)c(O)c1` was run?
Answer: > 100 µM (inactive)

Question: Which EC50 does the source give for `O=C(CN1C(=O)/C(=C/c2ccco2)SC1=S)Nc1ccc2nccnc2c1` here?
Answer: > 100 µM (inactive)

Question: Which EC50 does the source give for `Cc1ccc(/C=N/NC(=O)c2cc(O)c(O)c(O)c2)cc1` here?
Answer: > 100 µM (inactive)

Question: With `COc1cc(C(=O)NNC(=S)NC(=O)c2ccccc2C)cc(OC)c1OC` as the molecule, how does the EC50 read?
Answer: > 100 µM (inactive)

Question: How did the EC50 turn out when `COc1ccc(NC(=O)C(CC(C)C)NS(=O)(=O)c2ccc3[nH]c(=O)oc3c2)cc1` (stereo unspecified) was run?
Answer: > 100 µM (inactive)
